How the values were obtained:
Type in all cases: in vivo
Lolium multiflorum Lam. = assay: Test Example 4: herbicidal effect by application to foliage (diluvial soil, plastic box); settings: application to foliage, 320 g/ha
How it was run: (§1)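 Read-out is a 0–5 visual grade of herbicidal ratio (5: ≥90%, almost withered; 0: ≤5%) taken three weeks after treatment. Compound was applied as a diluted emulsion to stem and leaf parts of 14-day greenhouse-grown plants (25° C. to 30° C.) at rates expressed as g/ha.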

Setaria viridis = assay: as above; settings: application to foliage, 320 g/ha
How it was run: as §1

Chenopodium album = assay: as above; settings: application to foliage, 320 g/ha
How it was run: as §1

Apera spica-venti. = assay: as above; settings: application to foliage, 320 g/ha
How it was run: as §1

Digitaria ciliaris = assay: as above; settings: application to foliage, 320 g/ha
How it was run: as §1

Stellaria media = assay: as above; settings: application to foliage, 320 g/ha
How it was run: as §1

Alopecurus myosuroides = assay: as above; settings: application to foliage, 320 g/ha
How it was run: as §1

Abutilon theophrasti = assay: as above; settings: application to foliage, 320 g/ha
How it was run: as §1

Avena fatua = assay: as above; settings: application to foliage, 320 g/ha
How it was run: as §1

[1] = tested on: Echinochloa crus-galli var. crus-galli; assay: as above; settings: application to foliage, 320 g/ha
How it was run: as §1

Amaranthus retroflexus = assay: as above; settings: application to foliage, 320 g/ha
How it was run: as §1

Veronica persica = assay: as above; settings: application to foliage, 320 g/ha
How it was run: as §1

Galium spurium = assay: as above; settings: application to foliage, 320 g/ha
How it was run: as §1

Scirpus juncoides = assay: Test Example 2: herbicidal activity, application during weed generation in submerged conditions; settings: Eighteenth Table; application herbicide amount 320 g/ha
How it was run: (§2)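 Paddy-type pot test: flooded soil, 4 cm depth, greenhouse 25–30 °C. Emulsion formulation diluted in water, applied to water surface at 1–2 leaf stage; rate expressed as g/ha. Read-out at 3 wk, 0–5 score.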

Monochoria vaginalis = assay: as above; settings: Eighteenth Table; application herbicide amount 320 g/ha
How it was run: as §2

[2] = tested on: Echinochloa oryzacola Vasing.; assay: as above; settings: Eighteenth Table; application herbicide amount 320 g/ha
How it was run: as §2

Glycine max = assay: Test Example 4: effect on crop by application to foliage (diluvial soil, plastic box); settings: application to foliage, 320 g/ha
How it was run: as §1

Zea mays = assay: as above; settings: application to foliage, 320 g/ha
How it was run: as §1

Brassica campestris L. = assay: as above; settings: application to foliage, 320 g/ha
How it was run: as §1

Triticum aestivum = assay: as above; settings: application to foliage, 320 g/ha
How it was run: as §1

[3] = tested on: Beta vulgaris ssp. vulgaris; assay: as above; settings: application to foliage, 320 g/ha
How it was run: as §1

[4] = tested on: directly sowed Oryza sativa; assay: as above; settings: application to foliage, 320 g/ha
How it was run: as §1

| Structure (SMILES) | herbicidal effect, K (Lolium multiflorum Lam.) (Lolium multiflorum Lam.) | herbicidal effect, G (Setaria viridis) (Setaria viridis) | herbicidal effect, O (Chenopodium album) (Chenopodium album) | herbicidal effect, L (Apera spica-venti.) (Apera spica-venti.) | herbicidal effect, F (Digitaria ciliaris) (Digitaria ciliaris) | herbicidal effect, P (Stellaria media) (Stellaria media) | herbicidal effect, J (Alopecurus myosuroides) (Alopecurus myosuroides) | herbicidal effect, M (Abutilon theophrasti) (Abutilon theophrasti) | herbicidal effect, I (Avena fatua) (Avena fatua) | herbicidal effect, H (Echinochloa crus-galli var. crus-galli) [1] | herbicidal effect, N (Amaranthus retroflexus) (Amaranthus retroflexus) | herbicidal effect, R (Veronica persica) (Veronica persica) | herbicidal effect, Q (Galium spurium) (Galium spurium) | B (Scirpus juncoides) herbicidal ratio grade (Scirpus juncoides) | C (Monochoria vaginalis) herbicidal ratio grade (Monochoria vaginalis) | A (Echinochloa oryzicola Vasing.) herbicidal ratio grade [2] | effect on crop, c (Glycine max) (Glycine max) | effect on crop, b (Zea mays) (Zea mays) | effect on crop, g (Brassica campestris L.) (Brassica campestris L.) | effect on crop, e (Triticum aestivum) (Triticum aestivum) | further results |
| --- | --- | --- | --- | --- | --- | --- | --- | --- | --- | --- | --- | --- | --- | --- | --- | --- | --- | --- | --- | --- | --- |
| COc1ccc(N(C)c2nnc3c(C(=O)Nc4nnnn4C)ccc(C(F)(F)F)n23)cc1 [2-099] | 1 (Herbicidal ratio of 5% or more and less than 20%) | 4 (Herbicidal ratio of 70% or more and less than 90%) | 5 (Herbicidal ratio of 90% or more (almost completely withered)) | 1 (Herbicidal ratio of 5% or more and less than 20%) | 5 (Herbicidal ratio of 90% or more (almost completely withered)) | 5 (Herbicidal ratio of 90% or more (almost completely withered)) | 0 (Herbicidal ratio of 5% or less (almost no effect)) | 4 (Herbicidal ratio of 70% or more and less than 90%) | 2 (Herbicidal ratio of 20% or more and less than 40%) | 5 (Herbicidal ratio of 90% or more (almost completely withered)) | 4 (Herbicidal ratio of 70% or more and less than 90%) | 5 (Herbicidal ratio of 90% or more (almost completely withered)) | 4 (Herbicidal ratio of 70% or more and less than 90%) | 5 (Herbicidal ratio of 90% or more (almost completely withered)) | 4 (Herbicidal ratio of 70% or more and less than 90%) | 5 (Herbicidal ratio of 90% or more (almost completely withered)) | 0 (Herbicidal ratio of 5% or less (almost no effect)) | 3 (Herbicidal ratio of 40% or more and less than 70%) | 4 (Herbicidal ratio of 70% or more and less than 90%) | 0 (Herbicidal ratio of 5% or less (almost no effect)) | effect on crop, f (Beta vulgaris ssp. vulgaris) [3]: 5 (Herbicidal ratio of 90% or more (almost completely withered)); effect on crop, d (directly sowed Oryza sativa) [4]: 4 (Herbicidal ratio of 70% or more and less than 90%) |
| C=CCN(C)c1nnc2c(C(=O)Nc3nnnn3C)ccc(C(F)(F)F)n12 [2-100] | 3 (Herbicidal ratio of 40% or more and less than 70%) | 4 (Herbicidal ratio of 70% or more and less than 90%) | 5 (Herbicidal ratio of 90% or more (almost completely withered)) | 4 (Herbicidal ratio of 70% or more and less than 90%) | 5 (Herbicidal ratio of 90% or more (almost completely withered)) | 5 (Herbicidal ratio of 90% or more (almost completely withered)) | 2 (Herbicidal ratio of 20% or more and less than 40%) | 5 (Herbicidal ratio of 90% or more (almost completely withered)) | 3 (Herbicidal ratio of 40% or more and less than 70%) | 5 (Herbicidal ratio of 90% or more (almost completely withered)) | 5 (Herbicidal ratio of 90% or more (almost completely withered)) | 5 (Herbicidal ratio of 90% or more (almost completely withered)) | 5 (Herbicidal ratio of 90% or more (almost completely withered)) | 3 (Herbicidal ratio of 40% or more and less than 70%) | 4 (Herbicidal ratio of 70% or more and less than 90%) | 4 (Herbicidal ratio of 70% or more and less than 90%) | 0 (Herbicidal ratio of 5% or less (almost no effect)) | 5 (Herbicidal ratio of 90% or more (almost completely withered)) | 5 (Herbicidal ratio of 90% or more (almost completely withered)) | 0 (Herbicidal ratio of 5% or less (almost no effect)) | effect on crop, f (Beta vulgaris ssp. vulgaris) [3]: 5 (Herbicidal ratio of 90% or more (almost completely withered)); effect on crop, d (directly sowed Oryza sativa) [4]: 4 (Herbicidal ratio of 70% or more and less than 90%) |
| COCCSc1nnc2c(C(=O)Nc3nnnn3C)ccc(C(F)(F)F)n12 [2-101] | 3 (Herbicidal ratio of 40% or more and less than 70%) | 5 (Herbicidal ratio of 90% or more (almost completely withered)) | 5 (Herbicidal ratio of 90% or more (almost completely withered)) | 4 (Herbicidal ratio of 70% or more and less than 90%) | 5 (Herbicidal ratio of 90% or more (almost completely withered)) | 5 (Herbicidal ratio of 90% or more (almost completely withered)) | 3 (Herbicidal ratio of 40% or more and less than 70%) | 5 (Herbicidal ratio of 90% or more (almost completely withered)) | 3 (Herbicidal ratio of 40% or more and less than 70%) | 5 (Herbicidal ratio of 90% or more (almost completely withered)) | 5 (Herbicidal ratio of 90% or more (almost completely withered)) | 5 (Herbicidal ratio of 90% or more (almost completely withered)) | 4 (Herbicidal ratio of 70% or more and less than 90%) | 4 (Herbicidal ratio of 70% or more and less than 90%) | 5 (Herbicidal ratio of 90% or more (almost completely withered)) | 4 (Herbicidal ratio of 70% or more and less than 90%) | 2 (Herbicidal ratio of 20% or more and less than 40%) | 4 (Herbicidal ratio of 70% or more and less than 90%) | 5 (Herbicidal ratio of 90% or more (almost completely withered)) | 3 (Herbicidal ratio of 40% or more and less than 70%) | effect on crop, f (Beta vulgaris ssp. vulgaris) [3]: 5 (Herbicidal ratio of 90% or more (almost completely withered)); effect on crop, d (directly sowed Oryza sativa) [4]: 5 (Herbicidal ratio of 90% or more (almost completely withered)) |
| C=CCSc1nnc2c(C(=O)Nc3nnnn3C)ccc(C(F)(F)F)n12 [2-102] | 1 (Herbicidal ratio of 5% or more and less than 20%) | 4 (Herbicidal ratio of 70% or more and less than 90%) | 5 (Herbicidal ratio of 90% or more (almost completely withered)) | 3 (Herbicidal ratio of 40% or more and less than 70%) | 5 (Herbicidal ratio of 90% or more (almost completely withered)) | 5 (Herbicidal ratio of 90% or more (almost completely withered)) | 0 (Herbicidal ratio of 5% or less (almost no effect)) | 5 (Herbicidal ratio of 90% or more (almost completely withered)) | 1 (Herbicidal ratio of 5% or more and less than 20%) | 5 (Herbicidal ratio of 90% or more (almost completely withered)) | 5 (Herbicidal ratio of 90% or more (almost completely withered)) | 5 (Herbicidal ratio of 90% or more (almost completely withered)) | 3 (Herbicidal ratio of 40% or more and less than 70%) | 4 (Herbicidal ratio of 70% or more and less than 90%) | 4 (Herbicidal ratio of 70% or more and less than 90%) | 4 (Herbicidal ratio of 70% or more and less than 90%) | 0 (Herbicidal ratio of 5% or less (almost no effect)) | 1 (Herbicidal ratio of 5% or more and less than 20%) | 3 (Herbicidal ratio of 40% or more and less than 70%) | 1 (Herbicidal ratio of 5% or more and less than 20%) | effect on crop, f (Beta vulgaris ssp. vulgaris) [3]: 5 (Herbicidal ratio of 90% or more (almost completely withered)); effect on crop, d (directly sowed Oryza sativa) [4]: 4 (Herbicidal ratio of 70% or more and less than 90%) |
